The record followed here is ChEMBL document CHEMBL1949655, “Neomycin-phenolic conjugates: polycationic amphiphiles with broad-spectrum antibacterial activity, low hemolytic activity and weak serum protein binding” (Bioorg Med Chem Lett, 2012).

Converted amounts (≈) assume the structure as drawn. Bounds are passed on as bounds.

The test system of data set [1] is Escherichia coli. The experiment in a line: microbe, parasite or virus in culture. The data set is classed as functional. The following applies: isolate CAN-ICU 63074, 24 h.
Description: Antibacterial activity against Escherichia coli isolate CAN-ICU 63074 after 24 hrs by macrobroth dilution method in the presence of bovine serum albumin
Data set [2] has as its system Staphylococcus aureus. The experiment in a line: microbe, parasite or virus in culture. Type of data set: functional. The following applies: ATCC 29213, 24 h.
Description: Antibacterial activity against Staphylococcus aureus ATCC 29213 after 24 hrs by macrobroth dilution method
Data set [3] relates to Staphylococcus epidermidis. The experiment in a line: microbe, parasite or virus in culture. Type of data set: functional. The following applies: Staphylococcus epidermidis, 81388, 24 h.
Description: Antibacterial activity against methicillin-susceptible Staphylococcus epidermidis 81388 after 24 hrs by macrobroth dilution method
The subject of data set [4] is Staphylococcus aureus. The experiment in a line: microbe, parasite or virus in culture. Type of data set: functional. The following applies: ATCC 33592, 24 h.
Description: Antibacterial activity against methicillin-resistant Staphylococcus aureus ATCC 33592 after 24 hrs by macrobroth dilution method
Data set [5] concerns Escherichia coli. Nature of the data set: microbe, parasite or virus in culture. The following applies: ATCC 25922, 24 h. Type of data set: functional.
Description: Antibacterial activity against Escherichia coli ATCC 25922 after 24 hrs by macrobroth dilution method in the presence of bovine serum albumin
For data set [6], the system named is Klebsiella pneumoniae. The experiment in a line: microbe, parasite or virus in culture. Type of data set: functional. The conditions noted are these: ATCC 13883, 24 h.
Description: Antibacterial activity against Klebsiella pneumoniae ATCC 13883 after 24 hrs by macrobroth dilution method in the presence of bovine serum albumin
Data set [7] has as its system Enterococcus faecium. The experiment in a line: microbe, parasite or virus in culture. The conditions noted are these: ATCC 27270, 24 h. The data set is classed as functional.
Description: Antibacterial activity against Enterococcus faecium ATCC 27270 after 24 hrs by macrobroth dilution method in the presence of bovine serum albumin
The subject of data set [8] is Stenotrophomonas maltophilia. The experiment in a line: microbe, parasite or virus in culture. The data set is classed as functional. The following applies: isolate CAN-ICU 62584, 24 h.
Description: Antibacterial activity against Stenotrophomonas maltophilia isolate CAN-ICU 62584 after 24 hrs by macrobroth dilution method in the presence of bovine serum albumin
Data set [9] relates to Pseudomonas aeruginosa. Nature of the data set: microbe, parasite or virus in culture. The following applies: isolate CAN-ICU 62308, 24 h. The data set is classed as functional.
Description: Antibacterial activity against Pseudomonas aeruginosa isolate CAN-ICU 62308 after 24 hrs by macrobroth dilution method in the presence of bovine serum albumin
The test system of data set [10] is Pseudomonas aeruginosa. The experiment in a line: Ratio of MIC90 of neomycin sulfate to MIC90 of compound against Pseudomonas aeruginosa 62308. Type of data set: functional.
The subject of data set [11] is Staphylococcus epidermidis. The experiment in a line: microbe, parasite or virus in culture. Type of data set: functional, isolate CAN-ICU 61589. The following applies: isolate CAN-ICU61589, 24 h.
Description: Antibacterial activity against methicillin-resistant Staphylococcus epidermidis isolate CAN-ICU 61589 after 24 hrs by macrobroth dilution method in the presence of bovine serum albumin
For data set [12], the system named is Klebsiella pneumoniae. The experiment in a line: microbe, parasite or virus in culture. The data set is classed as functional. The conditions noted are these: ATCC 13883, 24 h. The source holds these as a separate data set.
Description: Antibacterial activity against Klebsiella pneumoniae ATCC 13883 after 24 hrs by macrobroth dilution method
For data set [13], the system named is Enterococcus faecium. Nature of the data set: microbe, parasite or virus in culture. Type of data set: functional. The following applies: ATCC 27270, 24 h. The source holds these as a separate data set.
Description: Antibacterial activity against Enterococcus faecium ATCC 27270 after 24 hrs by macrobroth dilution method
For data set [14], the system named is Staphylococcus epidermidis. The experiment in a line: microbe, parasite or virus in culture. Type of data set: functional. The conditions noted are these: isolate CAN-ICU61589, 24 h.
Description: Antibacterial activity against methicillin-resistant Staphylococcus epidermidis isolate CAN-ICU 61589 after 24 hrs by macrobroth dilution method
Data set [15] has as its system Enterococcus faecalis. The experiment in a line: microbe, parasite or virus in culture. The conditions noted are these: ATCC 29212, 24 h. The data set is classed as functional.
Description: Antibacterial activity against Enterococcus faecalis ATCC 29212 after 24 hrs by macrobroth dilution method
For data set [16], the system named is Staphylococcus aureus. The experiment in a line: microbe, parasite or virus in culture. Type of data set: functional. The following applies: ATCC 33592, 24 h. This is another data set of the same source.
Description: Antibacterial activity against methicillin-resistant Staphylococcus aureus ATCC 33592 after 24 hrs by macrobroth dilution method in the presence of bovine serum albumin
The nature of data set [17]: Toxicity in human erythrocytes assessed as hemolysis at 100 ug/ml by spectrophotometry. The following applies: at 100 µg/mL.
Data set [18] has as its system Escherichia coli. Nature of the data set: microbe, parasite or virus in culture. The data set is classed as functional. The following applies: isolate CAN-ICU 63074, 24 h. This is another data set of the same source.
Description: Antibacterial activity against Escherichia coli isolate CAN-ICU 63074 after 24 hrs by macrobroth dilution method
The subject of data set [19] is Escherichia coli. The experiment in a line: microbe, parasite or virus in culture. Type of data set: functional. The conditions noted are these: isolate CAN-ICU 61714, 24 h.
Description: Antibacterial activity against Escherichia coli isolate CAN-ICU 61714 after 24 hrs by macrobroth dilution method in the presence of bovine serum albumin
Data set [20] relates to Staphylococcus epidermidis. Nature of the data set: microbe, parasite or virus in culture. The conditions noted are these: Staphylococcus epidermidis, 81388, 24 h. Type of data set: functional. The source holds these as a separate data set.
Description: Antibacterial activity against methicillin-susceptible Staphylococcus epidermidis 81388 after 24 hrs by macrobroth dilution method in the presence of bovine serum albumin
The test system of data set [21] is Staphylococcus aureus. The experiment in a line: microbe, parasite or virus in culture. The data set is classed as functional. The conditions noted are these: ATCC 29213, 24 h. The source holds these as a separate data set.
Description: Antibacterial activity against Staphylococcus aureus ATCC 29213 after 24 hrs by macrobroth dilution method in the presence of bovine serum albumin
Data set [22] relates to Streptococcus pneumoniae. The experiment in a line: microbe, parasite or virus in culture. The data set is classed as functional. The conditions noted are these: ATCC 49619, 24 h.
Description: Antibacterial activity against Streptococcus pneumoniae ATCC 49619 after 24 hrs by macrobroth dilution method in the presence of bovine serum albumin
In data set [23] the test system is Escherichia coli. The experiment in a line: microbe, parasite or virus in culture. Type of data set: functional. The conditions noted are these: ATCC 25922, 24 h. The source holds these as a separate data set.
Description: Antibacterial activity against Escherichia coli ATCC 25922 after 24 hrs by macrobroth dilution method
Data set [24] has as its system Pseudomonas aeruginosa. The experiment in a line: Ratio of MIC90 of neomycin sulfate to MIC90 of compound against Pseudomonas aeruginosa ATCC 27853. Type of data set: functional.
Data set [25] has as its system Enterococcus faecalis. Nature of the data set: microbe, parasite or virus in culture. The data set is classed as functional. The conditions noted are these: ATCC 29212, 24 h. The source holds these as a separate data set.
Description: Antibacterial activity against Enterococcus faecalis ATCC 29212 after 24 hrs by macrobroth dilution method in the presence of bovine serum albumin
Data set [26] relates to Pseudomonas aeruginosa. The experiment in a line: microbe, parasite or virus in culture. Type of data set: functional. The following applies: isolate CAN-ICU 62308, 24 h. This is another data set of the same source.
Description: Antibacterial activity against Pseudomonas aeruginosa isolate CAN-ICU 62308 after 24 hrs by macrobroth dilution method
In data set [27] the test system is Escherichia coli. Nature of the data set: microbe, parasite or virus in culture. The data set is classed as functional. The following applies: isolate CAN-ICU 61714, 24 h. This is another data set of the same source.
Description: Antibacterial activity against Escherichia coli isolate CAN-ICU 61714 after 24 hrs by macrobroth dilution method
Data set [28] has as its system Pseudomonas aeruginosa. Nature of the data set: microbe, parasite or virus in culture. The conditions noted are these: ATCC 27853, 24 h. The data set is classed as functional.
Description: Antibacterial activity against Pseudomonas aeruginosa ATCC 27853 after 24 hrs by macrobroth dilution method
Data set [29] has as its system Acinetobacter baumannii. The experiment in a line: microbe, parasite or virus in culture. The data set is classed as functional. The following applies: isolate CAN-ICU 63169, 24 h.
Description: Antibacterial activity against Acinetobacter baumannii isolate CAN-ICU 63169 after 24 hrs by macrobroth dilution method in the presence of bovine serum albumin
Data set [30] deals with Streptococcus pneumoniae. The experiment in a line: microbe, parasite or virus in culture. The data set is classed as functional. The conditions noted are these: ATCC 49619, 24 h. This is another data set of the same source.
Description: Antibacterial activity against Streptococcus pneumoniae ATCC 49619 after 24 hrs by macrobroth dilution method
Data set [31] relates to Pseudomonas aeruginosa. The experiment in a line: microbe, parasite or virus in culture. The conditions noted are these: ATCC 27853, 24 h. The data set is classed as functional. The source holds these as a separate data set.
Description: Antibacterial activity against Pseudomonas aeruginosa ATCC 27853 after 24 hrs by macrobroth dilution method in the presence of bovine serum albumin
Data set [32] has as its system Stenotrophomonas maltophilia. Nature of the data set: microbe, parasite or virus in culture. Type of data set: functional. The conditions noted are these: isolate CAN-ICU 62584, 24 h. This is another data set of the same source.
Description: Antibacterial activity against Stenotrophomonas maltophilia isolate CAN-ICU 62584 after 24 hrs by macrobroth dilution method
Data set [33] deals with Acinetobacter baumannii. Nature of the data set: microbe, parasite or virus in culture. The data set is classed as functional. The following applies: isolate CAN-ICU 63169, 24 h. This is another data set of the same source.
Description: Antibacterial activity against Acinetobacter baumannii 63169 isolate CAN-ICU after 24 hrs by macrobroth dilution method
Data set [34] in a line: Aqueous solubility of the compound. The data set is classed as physicochemical. The following applies: buffer.

For the compound `CC(C)(C)CC(C)(C)c1ccc(OCc2cn(C[C@H]3O[C@@H](O[C@@H]4[C@@H](O)[C@H](N)C[C@H](N)[C@H]4O[C@H]4O[C@H](CN)[C@@H](O)[C@H](O)[C@H]4N)[C@H](O)[C@@H]3O[C@H]3O[C@@H](CN)[C@@H](O)[C@H](O)[C@H]3N)nn2)c(Cc2ccc(Cl)cc2Cl)c1`, the MIC90 against Escherichia coli [1] was 256 µg/mL (≈ 245 µM); in the data set with Staphylococcus aureus [2] it was 8 µg/mL (≈ 7.67 µM); in data set [3], 4 µg/mL (≈ 3.83 µM); in the data set with Staphylococcus aureus [4] it was 8 µg/mL (≈ 7.67 µM); in the data set on Escherichia coli [5], 64 µg/mL (≈ 61.4 µM); against Klebsiella pneumoniae [6] it was 64 µg/mL (≈ 61.4 µM). Moreover, the MIC90 in the data set with Enterococcus faecium [7] is 8 µg/mL (≈ 7.67 µM); in [8], > 512 µg/mL; against Pseudomonas aeruginosa [9] it was 128 µg/mL (≈ 123 µM); in data set [11], 4 µg/mL (≈ 3.83 µM); against Klebsiella pneumoniae [12], 64 µg/mL (≈ 61.4 µM); against Enterococcus faecium [13], 8 µg/mL (≈ 7.67 µM). The MIC90 amounted to 1 µg/mL (≈ 0.959 µM) in data set [14]; 8 µg/mL (≈ 7.67 µM) against Enterococcus faecalis [15]; 16 µg/mL (≈ 15.3 µM) against Staphylococcus aureus [16]; 64 µg/mL (≈ 61.4 µM) in the data set with Escherichia coli [18]; 128 µg/mL (≈ 123 µM) with Escherichia coli [19]; 2 µg/mL (≈ 1.92 µM) in [20]. In addition, the MIC90 against Staphylococcus aureus [21] turned out to be 8 µg/mL (≈ 7.67 µM); in the data set on Streptococcus pneumoniae [22], 128 µg/mL (≈ 123 µM); in the data set on Escherichia coli [23], 16 µg/mL (≈ 15.3 µM); in the data set with Enterococcus faecalis [25], 16 µg/mL (≈ 15.3 µM); against Pseudomonas aeruginosa [26], 64 µg/mL (≈ 61.4 µM); in the data set on Escherichia coli [27] it was 64 µg/mL (≈ 61.4 µM). The MIC90 with Pseudomonas aeruginosa [28] is 128 µg/mL (≈ 123 µM); against Acinetobacter baumannii [29], 256 µg/mL (≈ 245 µM); against Streptococcus pneumoniae [30], 64 µg/mL (≈ 61.4 µM); against Pseudomonas aeruginosa [31], 512 µg/mL (≈ 491 µM); in [32], 512 µg/mL (≈ 491 µM); against Acinetobacter baumannii [33] it was 64 µg/mL (≈ 61.4 µM). For the same compound, the Ratio in the data set on Pseudomonas aeruginosa [10] and in the data set on Pseudomonas aeruginosa [24] was 4 in each case. The hemolysis at 100 ug/ml in data set [17] worked out at 27.5%.

As to `CC(C)(C)CC(C)(C)c1ccc(OCCCCc2cn(C[C@H]3O[C@@H](O[C@@H]4[C@@H](O)[C@H](N)C[C@H](N)[C@H]4O[C@H]4O[C@H](CN)[C@@H](O)[C@H](O)[C@H]4N)[C@H](O)[C@@H]3O[C@H]3O[C@@H](CN)[C@@H](O)[C@H](O)[C@H]3N)nn2)c(Cc2ccc(Cl)cc2Cl)c1`, the MIC90 against Escherichia coli [1] turned out to be 256 µg/mL (≈ 236 µM); in the data set with Staphylococcus aureus [2], 16 µg/mL (≈ 14.7 µM); in data set [3] it was 8 µg/mL (≈ 7.37 µM); with Staphylococcus aureus [4] it was 16 µg/mL (≈ 14.7 µM); in the data set with Escherichia coli [5] it was 64 µg/mL (≈ 59 µM); in the data set on Klebsiella pneumoniae [6] it was 32 µg/mL (≈ 29.5 µM). The MIC90 is 16 µg/mL (≈ 14.7 µM) in the data set with Enterococcus faecium [7]; > 512 µg/mL in [8]; 256 µg/mL (≈ 236 µM) with Pseudomonas aeruginosa [9]; 4 µg/mL (≈ 3.69 µM) in data set [11]; 32 µg/mL (≈ 29.5 µM) with Klebsiella pneumoniae [12]; 8 µg/mL (≈ 7.37 µM) against Enterococcus faecium [13]. For the same compound, the MIC90 in data set [14] turned out to be 8 µg/mL (≈ 7.37 µM); against Enterococcus faecalis [15] it was 64 µg/mL (≈ 59 µM); with Staphylococcus aureus [16] it was 32 µg/mL (≈ 29.5 µM); in the data set with Escherichia coli [18], 128 µg/mL (≈ 118 µM); against Escherichia coli [19], 128 µg/mL (≈ 118 µM); in data set [20], 4 µg/mL (≈ 3.69 µM). For the same compound, the MIC90 came to 16 µg/mL (≈ 14.7 µM) in the data set on Staphylococcus aureus [21]; 64 µg/mL (≈ 59 µM) with Streptococcus pneumoniae [22]; 64 µg/mL (≈ 59 µM) with Escherichia coli [23]; 64 µg/mL (≈ 59 µM) in the data set with Enterococcus faecalis [25]; 64 µg/mL (≈ 59 µM) with Pseudomonas aeruginosa [26]; 64 µg/mL (≈ 59 µM) with Escherichia coli [27]. In addition, the MIC90 with Pseudomonas aeruginosa [28] was 128 µg/mL (≈ 118 µM); in the data set with Acinetobacter baumannii [29], > 512 µg/mL; in the data set with Streptococcus pneumoniae [30], 64 µg/mL (≈ 59 µM); in the data set on Pseudomonas aeruginosa [31], 512 µg/mL (≈ 472 µM); in [32], 512 µg/mL (≈ 472 µM); against Acinetobacter baumannii [33], 256 µg/mL (≈ 236 µM). Further, the Ratio in the data set with Pseudomonas aeruginosa [10] and in the data set on Pseudomonas aeruginosa [24] was 4 each time. In addition, the hemolysis at 100 ug/ml in data set [17] is 22.5%.

On to `CC(C)(C)CC(C)(C)c1ccc(O)c(Cc2ccc(Cl)cc2Cl)c1` [CLOFOCTOL], for which the solubility entry in [34] is recorded as “Insoluble”.
